# Test results reported in paper PMC6432887 (Drug Design, Development and Therapy, 2019).
# What was measured:
# [1] = In vitro dissolution studies; assay type: physicochemical; details: phosphate buffer pH 6.8
# [2] = Single-dose crossover bioavailability study, REP plasma levels by LC-MS/MS; assay type: in vivo, rabbits; details: male, albino, rabbit, po
# [3] = cited from earlier work
compound,measurement,setting,value
"CCOc1cc(CC(=O)N[C@@H](CC(C)C)c2ccccc2N2CCCCC2)ccc1C(=O)O [Plain REP, Repaglinide]",percentage drug released,"[1]; optimized formulae, alginate film and plain drug, within 30 minutes",22.981%
same,release rate,[1]; within 10 minutes,8.166%
same,release rate,[1]; within 15 minutes,19.65%
same,AUC(0-inf),[2],95400 ± 7220 ng·h/mL
same,AUC(0-t),[2],93400 ± 5610 ng·h/mL
same,Cmax,[2],31900 ± 1620 ng/mL
same,Tmax,[2],1 ± 0.143 h
same,half-life,[2],1.31 ± 0.117 h
same,k el,[2],0.000147 s⁻¹
same,Biopharmaceutics Classification System (BCS) class,[3],class II
